The values below come from patent US11504356B2, “Treatment for inflammatory disease” (REPOS PHARMA AB, priority 2017, dated 2022).

Series [1] relates to p-ERK in PMA differentiated THP-1 macrophages. Description: p-ERK level in PMA differentiated THP-1 macrophages. The class given is cell-based. Particulars: 10 μM, 1 hr exposure, vs DMSO control. The protocol: (§1) Phospho-ERK 1/2 (p-ERK) activity was measured using the Bioplex Pro Cell Signalling assay kit for ERK 1/2 (Biorad) and the Luminex MAGPIX® system according to the manufacturers' instructions. Measurements of p-ERK in CD4+ cells followed the protocol described by Gorelik et al. (J. Immunol. 2007; 179(8):5553-5563). The levels of the phosphoprotein phospho-ERK (p-ERK) in cell lysates after 1 h exposure to mebendazole (10 μM)), fenbendazole (10 μM) or control (DMSO) in monocytoid THP-1 cells and PMA differentiated THP-1 macrophages was measured using the Luminex MAGPIX® system and the commercially available kit (Biorad, Hercules, Calif.) described above. The assay is based on binding of the target of interest via antibodies to magnetic beads. The target is detected using biotinylated antibodies with a fluorescent reporter. The assays were performed according to the manufacturer's instructions. Briefly, the protein concentrations in the cell lysates were first determined using a Micro-BCA method (ThermoFischer Scientific, Waltham, Mass., USA) to ensure equal amounts of samples in the assay and then measurements were performed by incubating the cell lysate samples with beads, then with detection antibody, and finally with streptavidin-PE. The fluorescence was measured using the MAGPIX instrument (BioRad) and the concentration levels were determined by fitting to a standard curve.

Series [2] in a line: Serum mebendazole concentration in treated patient. The class given is in vivo. As to conditions: human, 400 mg daily (2×200 mg), daily dose 400 mg (2×200 mg), after six weeks. The protocol: The serum mebendazole concentration at this time point was 71 ng/ml.
Series [3] relates to p-ERK in CD4+ T-cells from SLE patient. Description: p-ERK in CD4+ T-cells isolated from PBMCs from an SLE patient. The class given is cell-based, human. Particulars: 10 μM and 30 μM. The protocol: (§2) Peripheral blood mononuclear cells (PBMCs) from healthy donors were isolated by 1.077 g/ml Ficoll-Paque centrifugation and cryopreserved as described by Larsson et al. (Int J Cancer 1992; 50: 177-185). Cell viability was determined by trypan blue exclusion test. SLE PBMCs were obtained Astarte Biologics, WA, USA (cat no 1035, lot 3429DE16) in cryopreserved vials (10 million cells). CD4+ cells were subsequently isolated with an autoMACS® instrument and a CD4+ isolation kit from Miltenyi Biotec according to the manufacturer's description and the method described by Gorelik et al. (J. Immunol. 2007; 179(8):5553-5563). Phospho-ERK 1/2 (p-ERK) activity was measured using the Bioplex Pro Cell Signalling assay kit for ERK 1/2 (Biorad) and the Luminex MAGPIX® system according to the manufacturers' instructions. Measurements of p-ERK in CD4+ cells followed the protocol described by Gorelik et al. (J. Immunol. 2007; 179(8):5553-5563). CD4+ T-Cells were isolated from PBMCs obtained from the venous blood of healthy donors and patients with SLE using the method described in Gorelik et al. (J. Immunol. 2007; 179(8):5553-5563). The level of p-ERK in the isolated CD4+ T-Cells was measured using the Bioplex Pro Cell Signalling assay kit for ERK 1/2 (Biorad) and the Luminex MAGPIX® system.

The subject of the next series is p-ERK in PBMC cells. Description: p-ERK level in peripheral blood mononuclear cells (PBMC). Type of series: cell-based. Particulars: PBMCs, FIG. 3b. The protocol:
as §2, with “179(8):5553-5563).” for “179(8):5553-5563). CD4+ T-Cells were isolated from PBMCs obtained from the venous blood of healthy donors and patients with SLE using the method described in Gorelik et al. (J. Immunol. 2007; 179(8):5553-5563).”, “levels” for “level”, “monocytoid THP-1 cells and PBMC cells were” for “the isolated CD4+ T-Cells was”, “system. The assay is based on binding of the target of interest via antibodies to magnetic beads. The target is detected using biotinylated antibodies with a fluorescent reporter. The assay was performed according to the manufacturer instructions.” for “system.”

The conditions of series [4]: long-term high-dose (40 mg/kg/day); cited from earlier work.
Series [5] has as its system anti-(double stranded)-DNA antibodies in serum of NZBNZWF1 mice. The series is described as follows: In vivo efficacy study in SLE model, NZBNZWF1 mice, serum anti-dsDNA antibodies.
Method: 40 female NZBNZWF1 mice (Envigo Europe) were fed and watered ad libitum and acclimatised for approximately 1 week before initiation of the experiment. Mice were 14 weeks old at the initiation of the experiment, and 16 weeks are the start of treatment. The mice were divided into 4 treatment groups of 10 mice each at the initiation of the experiment: • 1. Vehicle control: treatment with vehicle only • 2. Positive control: treatment with methotrexate (15 mg/kg) • 3. […] The positive control treatment of 15 mg/kg methotrexate was administered intraperitoneally 3 times per week for 8 weeks (weeks 16-24 of age of the mice). […] Serum was collected from all mice at initiation of the experiment (mice age 14 weeks), at start of treatment (mice age 16 weeks), and every second week during treatment (mice age 18, 20, 22, and 24 weeks), after treatment (mice age 26 and 28 weeks) and at termination (mice age 30 weeks). The serum samples were analysed for levels of antibodies directed against double stranded DNA (dsDNA) (anti-ds-DNA antibodies).
For series [6] the following is noted: low-dose (Vermox), 6276 subjects, 39 clinical trials; cited from earlier work.
Series [7] deals with Phospho-ERK 1/2 (p-ERK) in monocytoid THP-1 cells. Description: p-ERK level in monocytoid THP-1 cells (Bioplex Pro / Luminex MAGPIX). Particulars: for effect on p-ERK levels: 10 μM, 1 hr exposure, monocytoid THP-1 cells, vs DMSO control. The class given is cell-based. Here is the method:
as §1, with “Monocytoid THP-1 cells were obtained from ATCC (Manassas, Va.) and were cultured in RPMI-1640 medium, supplemented with 10% heat-inactivated fetal bovine serum (HIFBS), 2 mM L-glutamine, 100 U/100 […] penicillin/streptomycin and 0.05 mM 2-mercaptoethanol (all from Sigma, St Louis, Mo.). All cell lines were cultured at 37° C. in a humidified atmosphere containing 5% CO2. Phospho-ERK” for “Phospho-ERK”, “179(8):5553-5563). Phosphorylation of ERK by upstream MAPK proteins such as MEK results in activation of ERK. Measurement of p-ERK levels in cells is used as an indicator of ERK signalling. The level of p-ERK in monocytoid THP-1 cells was measured using the Bioplex Pro Cell Signalling assay kit for ERK 1/2 (Biorad) and the Luminex MAGPIX® system. The assay is based on binding of the target of interest via antibodies to magnetic beads. The target is detected using biotinylated antibodies with a fluorescent reporter. The assay was performed according to the manufacturer's instructions. The levels of p-ERK in monocytoid THP-1 cells and PBMC cells were measured using the Bioplex Pro Cell Signalling assay kit for ERK 1/2 (Biorad) and the Luminex MAGPIX® system. The assay is based on binding of the target of interest via antibodies to magnetic beads. The target is detected using biotinylated antibodies with a fluorescent reporter. The assay was performed according to the manufacturer instructions.” for “179(8):5553-5563).”

Series [8] is described as follows: Treatment of sarcoidosis patient, PET/CT examination. The class given is in vivo, human. As to conditions: one patient, 200 mg daily for six days then 400 mg daily (2×200 mg), after six weeks.
Method: A daily dose of 200 mg (given as 2×100 mg) of mebendazole was administered for six consecutive days.

For `COC(=O)Nc1nc2ccc(C(=O)c3ccccc3)cc2[nH]1` [mebendazole, Mebendazole], the “effect on p-ERK levels” value in series [1] and in series [7] was “significantly increased” in each case. The compound further displayed a concentration at 6 weeks in series [2] of 71 ng/mL. In series [3], the “p-ERK activity compared with CD4+ T-cells from a healthy donor” value is “restored the activity of p-ERK to at least the same level”. Further, the “dose dependence of p-ERK level” value (in the series on p-ERK in PBMC cells; in [7] (THP-1 cells not treated with U0126)) was “increased with an increasing dose” throughout. Also, the tolerability entry in series [4] is reported as “generally well tolerated”. For the same compound, in series [5] (25 mg/kg or 50 mg/kg p.o., 5 days per week, weeks 16-24), the “concentration of anti-dsDNA antibodies in serum vs vehicle control group or methotrexate positive control group” value was “lower concentrations”. The “concentration of anti-dsDNA antibodies in serum, higher dose vs lower dose” value in series [5] (50 mg/kg vs 25 mg/kg p.o.) is recorded as “lower concentration”. Moreover, the “subjects with related adverse events” value in series [6] is “less than 1%”. In addition, in series [7] (FIG. 2, comparison with other tubulin-active agents), the “effect on p-ERK levels in THP-1 cells” value was “significantly increased”. In addition, the p-ERK fluorescence reading result is listed as “approximately 1200 arb units” in series [7] (THP-1 cells not treated with U0126, 30 μM mebendazole) and “approximately 500 arb units” in [7] (THP-1 cells not treated with U0126, 1 μm mebendazole). For the same compound, in [8], the “PET scan outcome: FDG-signal and size of hilar and mediastinal nodes” value was “sarcoidosis in remission”.
`COC(=O)Nc1nc2ccc(Sc3ccccc3)cc2[nH]1` [Fenbendazole, fenbendazole]: the “effect on p-ERK levels” value in series [1] and in [7] was “did not increase” throughout.
